# Laboratory results as given in patent US20090131469A1, “PHARMACEUTICAL AGENT COMPRISING SOLIFENACIN” (ASTELLAS PHARMA INC., priority 2005, published 2009).
# Structures can show the parent of a compound that is named as a salt.
# Experiments:
# [1] = system: patients with neurogenic bladder; assay: Clinical study of urinary urgency, pollakiuria and urinary incontinence: patients with neurogenic bladder; format: in vivo, human; conditions: for improving effect on pollakiuria (in words) / improving effect on urinary incontinence (in words) / improving effect on urinary urgency (in words): solifenacin succinate 5 mg and 10 mg (Groups S5, S10), propiverine hydrochloride 20 mg (Group B), oral once daily for 12 weeks
# Description: (§1) A clinical study was conducted in patients with urinary urgency, pollakiuria and urinary incontinence under the conditions described below. The causes of urinary urgency, pollakiuria and urinary incontinence were separated into neurogenic bladder (due to cerebral infarction or brain disorder due to brain contusion, peripheral neuropathy, and spinal cord disorder due to cervical or lumbar spondylosis, spondylitis deformans, cervical or lumbar spondylolisthesis, disk herniation, spinal stenosis and the like) and unstable bladder (without accompanying neurological diseases, urinary tract infections and calculi, irradiation history to the lumbar part and tumors in the pelvic organs that can be causal disease of detrussor hyperactivity) and analyses were done.
# (§2) Male and female patients aged 20 years or older who presented symptoms of urinary urgency, pollakiuria and urinary incontinence for 6 months or a longer period, the number of micturition per 24 hours was 8 on average or higher and satisfied at least one of the following conditions (1) and (2):
# (§3) (1) Having at least one episode of urge urinary incontinence per 24 hours on average (2) Having at least one episode of urinary urgency per 24 hours on average. Patients with stress urinary incontinence, psychogenic pollakiuria and the like were excluded. In addition, patients with complication of urinary tract infection, urinary calculi, interstitial cystitis, bladder tumor and the like were also excluded.
# (§4) Group P: Placebo (Sham drug) Group S5: 5 mg of solifenacin succinate (corresponding to 3.8 mg of solifenacin calculated as a free base) Group S10: 10 mg of solifenacin succinate (corresponding to 7.5 mg of solifenacin calculated as a free base) Group B: 20 mg of propiverine hydrochloride
# (§5) All the groups received oral administration once daily for 12 weeks.
# [2] = system: rat model of pollakiuria associated with neurogenic bladder due to cerebral infarction; assay: Rat model of pollakiuria due to cerebral infarction (cystometry); format: in vivo; conditions: male SD rats with cerebral infarction; intravenous administration; 30 minutes after drug administration
# Description: Male SD rats (270 g to 320 g) were used for the test. After the rats were anesthetized with pentobarbital (50 mg/kg), a vesical fistula cannula and a cannula for drug administration were inserted and indwelled in the bladder and the jugular vein, respectively. A cannula was also inserted and indwelled in the common carotid vein for drug administration. Cerebral infarction was prepared according to the method of Longa et al. (Stroke, 1989, vol. 20, p. 84-91) 2 to 3 days after the surgery. Under halothane anesthesia, the cervical part was incised and a nylon thread was inserted from the common carotid artery to the internal carotid artery and the tip of the thread was carried forward to the origin of the middle cerebral artery and indwelled to induce cerebral ischemia. On the next day, neurological symptoms were observed and scored according to the method of Garcia, et al. (Stroke, 1995, Vol. 26, p. […]) and rats having moderate or more severe symptoms (with a score of 13 or less) were selected.
# After awakening from anesthesia, the rats were maintained in Bollman cages. The vesical fistula cannula was connected to a syringe pump via a three-way stopcock and physiological saline was continuously infused into the bladder to induce micturition reflex. Another end of the three-way stopcock was connected to a pressure transducer to measure intravesical pressure. After stabilization of micturition reflex, the test drug was administered through the catheter for drug dose inserted in the external carotid vein.
# The volume of physiological saline required to induce a single micturition reflex at 30 minutes after drug administration, that is, bladder capacity and the voided volume per micturition were measured. The results are shown as mean±standard error.
# The Student's t-test was used for a comparison between the sham surgery group and the cerebral infarction group and the Dunnett's multiple comparison test was used for a comparison between the group receiving drug administration and the group not receiving drug administration in the cerebral infarction group.
# [3] = system: patients with unstable bladder; assay: Clinical study of urinary urgency, pollakiuria and urinary incontinence: patients with unstable bladder; format: in vivo, human
# Description: as §1, §2, §3, §4, §5
# [4] = Group B: 20 mg oral once daily for 12 weeks
# [5] = Group S5: 5 mg oral once daily for 12 weeks
# [6] = Group S10: 10 mg oral once daily for 12 weeks
smiles,measurement,setting,value
"CCCOC(C(=O)OC1CCN(C)CC1)(c1ccccc1)c1ccccc1 [propiverine hydrochloride, reference compound]",Difference of change in the number of micturitions from that in Group P,[1]; [4],+0.23
same,Difference of change in the number of urinary incontinence episodes from that in Group P,[1]; [4],−1.01
same,Difference of change in the number of urinary urgency episodes from that in Group P,[1]; [4],+0.18
same,Mean change in the number of micturitions,[1]; [4],−1.25
same,Mean change in the number of urinary incontinence episodes,[1]; [4],−1.62
same,Mean change in the number of urinary urgency episodes,[1]; [4],−1.65
same,improving effect on pollakiuria (in words),[1],no improving effect on pollakiuria was observed
same,improving effect on urinary incontinence (in words),[1],improved urinary incontinence
same,improving effect on urinary urgency (in words),[1],improving effect on urinary urgency was not observed
same,doses that increased the bladder capacity,[2],≥ 1 mg/kg
same,doses that increased the voided volume,[2],≥ 0.3 mg/kg
same,Difference of change in the number of micturitions from that in Group P,[3]; [4],−0.99
same,Difference of change in the number of urinary incontinence episodes from that in Group P,[3]; [4],−0.50
same,Difference of change in the number of urinary urgency episodes from that in Group P,[3]; [4],−1.08
same,Mean change in the number of micturitions,[3]; [4],−1.90
same,Mean change in the number of urinary incontinence episodes,[3]; [4],−1.23
same,Mean change in the number of urinary urgency episodes,[3]; [4],−2.33
"O=C(O[C@H]1CN2CCC1CC2)N1CCc2ccccc2[C@@H]1c1ccccc1 [solifenacin succinate, (3R)-quinuclidin-3-yl (1S)-1-phenyl-1,2,3,4-tetrahydroisoquinoline-2-carboxylate]",Difference of change in the number of micturitions from that in Group P,[1]; [5],−0.56
same,Difference of change in the number of urinary incontinence episodes from that in Group P,[1]; [5],−1.19
same,Difference of change in the number of urinary urgency episodes from that in Group P,[1]; [5],−1.03
same,Mean change in the number of micturitions,[1]; [5],−2.04
same,Mean change in the number of urinary incontinence episodes,[1]; [5],−1.80
same,Mean change in the number of urinary urgency episodes,[1]; [5],−2.86
same,Difference of change in the number of micturitions from that in Group P,[1]; [6],−1.11
same,Difference of change in the number of urinary incontinence episodes from that in Group P,[1]; [6],−0.79
same,Difference of change in the number of urinary urgency episodes from that in Group P,[1]; [6],−0.60
same,Mean change in the number of micturitions,[1]; [6],−2.59
same,Mean change in the number of urinary incontinence episodes,[1]; [6],−1.40
same,Mean change in the number of urinary urgency episodes,[1]; [6],−2.43
same,improving effect on pollakiuria (in words),[1],improving effect on pollakiuria was observed
same,improving effect on urinary incontinence (in words),[1],"improve all the symptoms of urinary urgency, pollakiuria and urinary incontinence"
same,improving effect on urinary urgency (in words),[1],improving effect on urinary urgency was observed
same,doses that increased the bladder capacity,[2],≥ 0.03 mg/kg
same,doses that increased the voided volume,[2],≥ 0.03 mg/kg
same,Difference of change in the number of micturitions from that in Group P,[3]; [5],−1.02
same,Difference of change in the number of urinary incontinence episodes from that in Group P,[3]; [5],−0.85
same,Difference of change in the number of urinary urgency episodes from that in Group P,[3]; [5],−1.13
same,Mean change in the number of micturitions,[3]; [5],−1.93
same,Mean change in the number of urinary incontinence episodes,[3]; [5],−1.58
same,Mean change in the number of urinary urgency episodes,[3]; [5],−2.38
same,Difference of change in the number of micturitions from that in Group P,[3]; [6],−1.26
same,Difference of change in the number of urinary incontinence episodes from that in Group P,[3]; [6],−0.88
same,Difference of change in the number of urinary urgency episodes from that in Group P,[3]; [6],−1.56
same,Mean change in the number of micturitions,[3]; [6],−2.17
same,Mean change in the number of urinary incontinence episodes,[3]; [6],−1.61
same,Mean change in the number of urinary urgency episodes,[3]; [6],−2.81
